Measured values: PMC4478171, “Synthesis, characterization, and preclinical validation of a PET radiopharmaceutical for interrogating Aβ (β-amyloid) plaques in Alzheimer’s disease” (EJNMMI Research, 2015)
Entries after “also recorded” stand apart in the source; their conditions may differ.

Assays:
[1] = target: cortical Aβ plaques in AD frontal cortex sections (Homo sapiens, UniProt P05067); assay: Autoradiography on AD frontal cortex sections with IHC correlation; type: binding; conditions: 10 nM tracer, 60 min, 12 μm AD frontal cortex sections
Experimental: Frozen AD frontal cortex sections (12 μm) were obtained using a TBS Minotome PLUS Cryostat. The tissue sections were thaw-mounted onto Superfrost Plus (Fisherbrand 12-550-15 (Fisherbrand, Leicestershire, UK)) microscope slides, allowed to air dry for 10 to 15 min, and stored at −80°C. For autoradiography, brain sections were brought to room temperature for 5 min and then pre-incubated in assay buffer (30 mM Tris-HCl, pH 7.4 + 0.1% BSA) for 10 min at RT. Sections were incubated with ^18F-7B (300 μL/slide; 10 nM) in the assay buffer for 60 min at room temperature. For determining nonspecific binding, adjacent sections were incubated in the additional presence of 2.5 μM cold ligand 7A. Sections were then washed at RT for 1 min in 30 mM Tris-HCl pH 7.4, 2 min in 70% ethanol/30 mM Tris-HCl, 1 min in 30% ethanol/30 mM Tris-HCl, and 1 min in 30 mM Tris-HCl (washing protocol using literature precedents. Sections were then dried and exposed to phosphor-imaging screen (BAS-MS 2025) for 30 min. Autoradiography images were obtained on a Fuji Bio-Imaging System FLA-7000 (Tokyo, Japan) and analyzed using MultiGauge software (Fuji, Tokyo, Japan). Following exposure to a phosphor-imaging screen, the sections were then blocked for 60 min at room temperature with 3% milk-0.25% Tween 20-PBS buffer. […]

Aβ plaques = Aβ plaques (Homo sapiens, UniProt P05067); assay: MicroPET/CT imaging in APP/PS1 versus WT mice; type: in vivo
Experimental: Following anesthesia, the mice were secured with their heads in the center of the field of view, fixed in the scanner in a prone head-first position (HFP), and placed in an acrylic-imaging tray. MicroPET imaging was performed using Inveon PET/CT scanner (Siemens Medical Solutions, Malvern, PA, USA) following intravenous tail-vein injection of HPLC-purified [^18F]7B (12.95 MBq; 28 μL; 35% ethanol in saline) employing the catheter system in a slow bolus, followed by flushing with isotonic saline solution. PET dynamic data acquisition was performed over 75 min starting immediately following injection of the tracer. The emission data were normalized and corrected for attenuation, scatter, and decay. Attenuation correction was obtained using the co-registered CT data. The image volume consisted of 256 × 256 × 159 voxels, with a size of 0.39 × 0.39 × 0.8 mm^3 per voxel for the Inveon scanner. For anatomical visualization, PET images were co-registered with CT images from an Inveon PET/CT scanner. For analysis, brain uptake (Bq/L) was normalized to injected dose and weight of animals. […] Additionally, SUV values in time-activity curves were normalized to the average activity measured in those regions between 1 to 2 min post-injection. All image data were processed and analyzed using Inveon Research Workspace 4.1 software (Siemens, Malvern, PA, USA). […]

[2] = Metabolite analysis in human serum (radio-HPLC, radio-TLC); type: in vitro ADME; conditions: 37°C up to 60 min, radio-HPLC and radio-TLC
Experimental: Human serum (Sigma-Aldrich, St. Louis, MO, USA) was thawed. Serum (100 μL) was taken, diluted with saline to 10%, and incubated with HPLC-purified fraction of ^18F-7B (100 μCi each) at 37°C for 30 and 60 min. Samples were periodically withdrawn and analyzed on radio-HPLC using eluent mixture described above and radio-TLC using an eluent mixture of ethanol/saline in a ratio of 90:10 (to allow mobility of parental compound and other hydrophobic metabolites off the surface to analyze protein binding) and 10:90 (to analyze hydrophilic metabolites).

Lipophilicity (log P) = type: physicochemical; conditions: octanol/water

Sequence of Aβ plaques (P05067 672-711 limits assumed): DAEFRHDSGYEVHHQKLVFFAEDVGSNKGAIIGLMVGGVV
Sequence of cortical Aβ plaques in AD frontal cortex sections (P05067 672-711 limits assumed): as above

Compound: CN(C)c1ccc(/C=C/c2nc3ccc(OCC[18F])cc3s2)cn1 [^18F-7B, (E)-5-(2-(6-(2-[^18F]-fluoroethoxy)-benzo[d]thiazol-2-yl)vinyl)-N,N-dimethylpyridin-2-amine]
- labeling of Aβ plaques in autoradiography [1]: showed labeling of cortical Aβ plaques
- retention in brain/frontal cortex of transgenic mice compared with WT (Aβ plaques; APP/PS1 vs age-matched WT mice, 22.6 months, dynamic PET 1 to 75 min, i.v.): significantly higher retention
- retention in extracerebral regions (Aβ plaques; nasal and eye cavities, microPET/CT): considerable retention in extracerebral regions
- stability in human serum [2]: presence of parental species in human serum; also recorded: presence of primarily the parental compound
- logP (Lipophilicity (log P)): 1.3
